Assay results: US20210085711A1 (Japan Tobacco Inc., priority 2017, published 2021)
Read-outs that look alike come from different tables or passages of the source.

Legend:
[1] = test system: patients with hypermenorrhea and/or patients with hypermenorrhea-associated gynecologic diseases (iron-deficiency anemia patients); assay: Phase II clinical trial of JTT-751: serum iron level; assay type: in vivo, human
Protocol: (§1) This test was a three-stage safety and efficacy clinical trial at multi-facilities. The first stage was a pre-observation period (Day −40 to Day −1), the second stage was an administration period (Day 1 to Day 48) (efficacy and safety evaluation period), and the third stage was a post-observation period (Day 49 to Day 63) (efficacy and safety evaluation period). The safety evaluation and efficacy evaluation were performed by multi-facility collaboration, placebo control, random allocation, double-blind trial, and parallel group comparison test.
(§2) (1) Japanese patients who are 20 or more and less than 65 years old at the time of agreement and can visit an outpatient clinic (2) Patients who have an Hb value (measured using HemoCue® Hb 201 DM analyzer in the institute of clinical practice) of 7.0 g/dL or more and less than 11.0 g/dL on both the observation start date and Week 0, and the difference between the two days is 1.0 g/dL or less (3) Patients with a TIBC of 360 μg/dL or more or a serum ferritin value of less than 12 ng/mL on the observation start date
(§3) The administration period of the trial drug is seven weeks which starts from the next day of the Week 0 visit to the day before the Week 7 visit, provided that the trial drug is not taken on the scheduled Week 3 visit.
(§4) (2) Subsidiary evaluation items 1) Erythrocyte-related examination values and amount of change from Week 0 at each observation date 2) Iron-related test values and amount of change from Week 0 at each observation date 3) Achievement rate of target Hb value (female; 12.0 g/dL or more, male; 13.0 g/dL or more) at each observation date 4) Achievement rate of 1.0 g/dL or more and achievement rate of 2.0 g/dL or more in Hb value improvement from Week 0 at each observation date 5) Average daily change of Hb value from Week 0 to each observation date
(§5) The blood hemoglobin value (Hb), the serum iron level, the serum ferritin value, the total iron-binding capacity (TIBC) and the transferrin saturation rate (TSAT), and the mean corpuscular volume (MCV) were each examined at the observation start date, Week 0, Week 3, Week 7, the end of administration and the consultation at nine weeks after Week 0; the hepcidin concentration (Hepcidin 25) and the serum soluble transferrin receptor concentration (sTfR) were each examined on Week 0, Week 3 and Week 7 and at the end of administration; and the C-terminal FGF23 value (cFGF23) and the intact FGF23 value (iFGF23) were each examined on Week 0 and Week 7 and at the end of administration.

[2] = test system: patients with hypermenorrhea and/or patients with hypermenorrhea-associated gynecologic diseases (iron-deficiency anemia patients)
Protocol: as §1, §3, §5

[3] = test system: patients with hypermenorrhea and/or patients with hypermenorrhea-associated gynecologic diseases (iron-deficiency anemia patients); assay: Phase II clinical trial of JTT-751: hepcidin concentration (Hepcidin 25); assay type: in vivo, human
Protocol: as §1, §2, §3, §4, §5

[4] = 250 mg/day, 9 weeks after Week 0
[5] = 250 mg/day, End of administration
[6] = 250 mg/day, Week 3 (Week 0 not given)
[7] = 500 mg/day, 9 weeks after Week 0
[8] = 500 mg/day, End of administration
[9] = 500 mg/day, Week 3 (Week 0 not given)
[10] = 1000 mg/day, 9 weeks after Week 0
[11] = 1000 mg/day, End of administration
[12] = 1000 mg/day, Week 3 (Week 0 not given)
[13] = 1500 mg/day, 9 weeks after Week 0
[14] = 1500 mg/day, End of administration
[15] = 1500 mg/day, Week 3 (Week 0 not given)
[16] = End of administration, JTT-751 250 mg group
[17] = End of administration, JTT-751 500 mg group
[18] = End of administration, JTT-751 1000 mg group
[19] = End of administration, JTT-751 1500 mg group
[20] = Week 0 (baseline), JTT-751 250 mg group
[21] = Week 0 (baseline), JTT-751 500 mg group
[22] = Week 0 (baseline), JTT-751 1000 mg group
[23] = Week 0 (baseline), JTT-751 1500 mg group

Ferric citrate [JTT-751]
Serum iron, Mean [1, 4]: 14.3 µg/dL
Serum iron, Median [1, 4]: 13.0 µg/dL
Serum iron, Mean [1, 5]: 30.4 µg/dL
Serum iron, Median [1, 5]: 25.0 µg/dL
Serum iron, Mean [1, 6]: 19.9 µg/dL
Serum iron, Median [1, 6]: 18.5 µg/dL
Serum iron, Mean ([1]; 250 mg/day, Week 7): 30.4 µg/dL
Serum iron, Median ([1]; 250 mg/day, Week 7): 25.0 µg/dL
Serum iron, Mean [1, 7]: 24.6 µg/dL
Serum iron, Median [1, 7]: 18.0 µg/dL
Serum iron, Mean [1, 8]: 40.1 µg/dL
Serum iron, Median [1, 8]: 42.5 µg/dL
Serum iron, Mean [1, 9]: 29.6 µg/dL
Serum iron, Median [1, 9]: 13.5 µg/dL
Serum iron, Mean ([1]; 500 mg/day, Week 7): 40.1 µg/dL
Serum iron, Median ([1]; 500 mg/day, Week 7): 42.5 µg/dL
serum iron level on Week 3 ([1]; 1000 mg administration group and 1500 mg administration group, Week 3): improved to a normal value
Serum iron, Mean [1, 10]: 40.3 µg/dL
Serum iron, Median [1, 10]: 38.0 µg/dL
Serum iron, Mean [1, 11]: 48.3 µg/dL
Serum iron, Median [1, 11]: 52.0 µg/dL
Serum iron, Mean [1, 12]: 55.5 µg/dL
Serum iron, Median [1, 12]: 36.0 µg/dL
Serum iron, Mean ([1]; 1000 mg/day, Week 7): 48.3 µg/dL
Serum iron, Median ([1]; 1000 mg/day, Week 7): 52.0 µg/dL
Serum iron, Mean [1, 13]: 38.1 µg/dL
Serum iron, Median [1, 13]: 34.0 µg/dL
Serum iron, Mean [1, 14]: 54.4 µg/dL
Serum iron, Median [1, 14]: 46.0 µg/dL
Serum iron, Mean [1, 15]: 53.1 µg/dL
Serum iron, Median [1, 15]: 27.0 µg/dL
Serum iron, Mean ([1]; 1500 mg/day, Week 7): 54.4 µg/dL
Serum iron, Median ([1]; 1500 mg/day, Week 7): 46.0 µg/dL
serum iron level, increased to a normal value ([1]; continuous administration, Week 0, Week 3 and Week 7): about 50 μg/dL
TSAT, profile from the baseline (value at Week 0), Mean [2, 4]: 4.29%
TSAT, profile from the baseline (value at Week 0), Median [2, 4]: 3.85%
TSAT, profile from the baseline (value at Week 0), Mean [2, 5]: 9.12%
TSAT, profile from the baseline (value at Week 0), Median [2, 5]: 7.60%
TSAT, profile from the baseline (value at Week 0), Mean ([2]; 250 mg/day, Week 3): 5.26%
TSAT, profile from the baseline (value at Week 0), Median ([2]; 250 mg/day, Week 3): 4.85%
TSAT, profile from the baseline (value at Week 0), Mean ([2]; 250 mg/day, Week 7): 9.12%
TSAT, profile from the baseline (value at Week 0), Median ([2]; 250 mg/day, Week 7): 7.60%
TSAT, profile from the baseline (value at Week 0), Mean [2, 7]: 7.27%
TSAT, profile from the baseline (value at Week 0), Median [2, 7]: 5.90%
TSAT, profile from the baseline (value at Week 0), Mean [2, 8]: 12.27%
TSAT, profile from the baseline (value at Week 0), Median [2, 8]: 12.35%
TSAT, profile from the baseline (value at Week 0), Mean ([2]; 500 mg/day, Week 3): 8.57%
TSAT, profile from the baseline (value at Week 0), Median ([2]; 500 mg/day, Week 3): 3.60%
TSAT, profile from the baseline (value at Week 0), Mean ([2]; 500 mg/day, Week 7): 12.27%
TSAT, profile from the baseline (value at Week 0), Median ([2]; 500 mg/day, Week 7): 12.35%
TSAT, profile from the baseline (value at Week 0), Mean [2, 10]: 12.42%
TSAT, profile from the baseline (value at Week 0), Median [2, 10]: 12.60%
TSAT, profile from the baseline (value at Week 0), Mean [2, 11]: 15.46%
TSAT, profile from the baseline (value at Week 0), Median [2, 11]: 16.20%
TSAT, profile from the baseline (value at Week 0), Mean ([2]; 1000 mg/day, Week 3): 15.56%
TSAT, profile from the baseline (value at Week 0), Median ([2]; 1000 mg/day, Week 3): 9.90%
TSAT, profile from the baseline (value at Week 0), Mean ([2]; 1000 mg/day, Week 7): 15.46%
TSAT, profile from the baseline (value at Week 0), Median ([2]; 1000 mg/day, Week 7): 16.20%
TSAT, profile from the baseline (value at Week 0), Mean [2, 13]: 11.41%
TSAT, profile from the baseline (value at Week 0), Median [2, 13]: 9.95%
TSAT, profile from the baseline (value at Week 0), Mean [2, 14]: 16.70%
TSAT, profile from the baseline (value at Week 0), Median [2, 14]: 16.00%
TSAT, profile from the baseline (value at Week 0), Mean ([2]; 1500 mg/day, Week 3): 15.59%
TSAT, profile from the baseline (value at Week 0), Median ([2]; 1500 mg/day, Week 3): 7.90%
TSAT, profile from the baseline (value at Week 0), Mean ([2]; 1500 mg/day, Week 7): 16.70%
TSAT, profile from the baseline (value at Week 0), Median ([2]; 1500 mg/day, Week 7): 16.00%
Hepcidin-25, Mean [3, 16]: 2.196 pg/mL
Hepcidin-25, Median [3, 16]: 1.520 pg/mL
Hepcidin-25, Mean [3, 17]: 4.818 pg/mL
Hepcidin-25, Median [3, 17]: 3.925 pg/mL
Hepcidin-25, Mean [3, 18]: 11.465 pg/mL
Hepcidin-25, Median [3, 18]: 9.680 pg/mL
Hepcidin-25, Mean [3, 19]: 11.674 pg/mL
Hepcidin-25, Median [3, 19]: 8.440 pg/mL
Hepcidin-25, Mean [3, 20]: 0.726 pg/mL
Hepcidin-25, Median [3, 20]: 0.715 pg/mL
Hepcidin-25, Mean [3, 21]: 0.593 pg/mL
Hepcidin-25, Median [3, 21]: 0.290 pg/mL
Hepcidin-25, Mean [3, 22]: 0.509 pg/mL
Hepcidin-25, Median [3, 22]: 0.410 pg/mL
Hepcidin-25, Mean [3, 23]: 0.631 pg/mL
Hepcidin-25, Median [3, 23]: 0.600 pg/mL
Hepcidin 25 concentration, time-dependent change ([3]; Week 0, Week 3 and Week 7): increased along with the continuous administration
Hepcidin-25, Mean ([3]; Week 3, JTT-751 250 mg group): 1.289 pg/mL
Hepcidin-25, Median ([3]; Week 3, JTT-751 250 mg group): 0.695 pg/mL
Hepcidin-25, Mean ([3]; Week 3, JTT-751 500 mg group): 1.839 pg/mL
Hepcidin-25, Median ([3]; Week 3, JTT-751 500 mg group): 0.895 pg/mL
Hepcidin-25, Mean ([3]; Week 3, JTT-751 1000 mg group): 8.623 pg/mL
Hepcidin-25, Median ([3]; Week 3, JTT-751 1000 mg group): 8.430 pg/mL
Hepcidin-25, Mean ([3]; Week 3, JTT-751 1500 mg group): 7.813 pg/mL
Hepcidin-25, Median ([3]; Week 3, JTT-751 1500 mg group): 5.940 pg/mL
Hepcidin-25, Mean ([3]; Week 7, JTT-751 250 mg group): 2.196 pg/mL
Hepcidin-25, Median ([3]; Week 7, JTT-751 250 mg group): 1.520 pg/mL
Hepcidin-25, Mean ([3]; Week 7, JTT-751 500 mg group): 4.818 pg/mL
Hepcidin-25, Median ([3]; Week 7, JTT-751 500 mg group): 3.925 pg/mL
Hepcidin-25, Mean ([3]; Week 7, JTT-751 1000 mg group): 11.465 pg/mL
Hepcidin-25, Median ([3]; Week 7, JTT-751 1000 mg group): 9.680 pg/mL
Hepcidin-25, Mean ([3]; Week 7, JTT-751 1500 mg group): 11.674 pg/mL
Hepcidin-25, Median ([3]; Week 7, JTT-751 1500 mg group): 8.440 pg/mL
